The subject of one data set is Dm28c trypomastigotes. The experiment in a line: Trypomastigote viability study (MTT). The data set is classed as cell-based, Trypanosoma cruzi. Particulars: for IC50: Trypanosoma cruzi, T. cruzi Dm28c trypomastigotes, 24 h, MTT. The procedure:
Vero cells (ATCC CCL-81) were infected with Dm28c trypomastigotes at a 1:3 (cell: parasite) ratio. T. cruzi trypomastigotes were initially obtained from primary cultures of peritoneal macrophage from chagasic mice. […] Vero cell cultures were then infected with trypomastigotes and incubated at 37 °C in humidified air and 5% CO2 for 5–7 days. After that time, the culture medium was collected and centrifuged at 500× g for 5 min. The trypomastigote-containing pellet was re-suspended in RPMI 1640 supplemented with inactivated FBS and penicillin–streptomycin at a final 1 × 10^7 parasites/mL density. Trypomastigote viability assays were performed using the MTT reduction method as described previously. Then, 1 × 10^7 parasites/mL was incubated in RPMI 1640 with inactivated FBS at 37 °C for 24 h with or without the studied compounds.

Data set [1] concerns RAW 264.7 cells. Put plainly: Cytotoxicity MTT assay on RAW 264.7 cells. The data set is classed as cell-based. Particulars: Mus musculus, RAW264.7, in vitro cytotoxicity, murine RAW 264.7 macrophages. Here is the method:
The compounds under study, dissolved in dimethylsulfoxide (DMSO), were added to the culture media at 10–200 μM. RAW 264.7 cells were cultured in 96-well plates (5 × 10^4 cells per well), and 100 μL of 0.5 mg/mL MTT was added to each well. The DMSO final concentration was less than 0.1% v/v. After incubation for 4 h at 37 °C, the generated water-insoluble formazan dye was dissolved by adding 100 μL of 10% w/v sodium dodecyl sulfate (SDS) in 0.01 M HCl. The plates were further incubated overnight at 37 °C; […] 0.5% of Triton X-100 was added as a positive control. The plates were further incubated overnight at 37 °C, and the optical density of the wells was determined using a microplate reader (Asys Expert Plus©, Asys Hitachi, Vienna, Austria) at 570 nm. Under these conditions, the optical density is directly proportional to the viable cell number in each well. All experiments were performed at least thrice and data were reported as means and their standard deviations from triplicate cultures. Results are reported as IC50 regarding the control (uninfected cells in culture medium)
A general note: Tetrazolium dyes change colour on reduction, which living cells bring about.

In another data set the test system is CL-B5 epimastigotes. Set-up: method as in PMID 23124218. The settings on record: cited from earlier work.
In data set [2] the test system is T. cruzi epimastigote stage (Dm28c strain). The experiment in a line: Epimastigotes viability study (MTT). The data set is classed as cell-based, Trypanosoma cruzi. The settings on record: for SI Epimastigote: Selectivity Index IC50 macrophages RAW 264.7/IC50 epimastigotes Dm28c; for IC50: Trypanosoma cruzi, T. cruzi Dm28c epimastigotes, 24 h, MTT. The procedure: The trypanocidal activity was evaluated against the T. cruzi epimastigote stage (Dm28c strain). It was measured through the MTT assay using 0.22 mg/mL phenazine methosulfate (as an electron carrier). T. cruzi epimastigote from the author's collection (Programa de Farmacología Molecular y Clínica, Facultad de Medicina, Universidad de Chile, Santiago, Chile) were grown at 28 °C in liver infusion tryptase (LIT) medium, as reported earlier, but replacing blood with 4 μM hemin. […] fetal bovine serum (FBS) was added to a final concentration of 10% v/v. In this colorimetric assay for testing the trypanocidal activity, the compounds were dissolved in DMSO. They were added to 3 × 10^6 parasites/mL at 100 μM final concentrations in RPMI 1640 culture medium without phenol red for 24 h at 28 °C. The final concentration of DMSO was less than 0.1% v/v. […] The MTT assay, which was described previously, determined the viability of the epimastigotes.

Data set [3] can be described thus: Cyclic voltammetry, reduction of nitro group. The data set is classed as physicochemical. The settings on record: for −EpaIII: anodic peak potential of couple IIIc/IIIa; for −EpaIII / −EpcIII / −E1/2: given with inverted sign, vs. Ag/AgCl electrode in DMSO; for −EpcIII: cathodic peak potential of couple IIIc/IIIa; for Ipa/Ipc: current ratio RNO2/RNO2•−, couple IIIc/IIIa, DMSO; for −E1/2: half-wave potential of couple IIIc/IIIa. The procedure: Cyclic Voltammetry (CV) was carried out using a Metrohm Autolab instrument model PGSTAT204, using dimethyl sulfoxide (DMSO) as the solvent (1 mM solutions), tetrabutylammonium perchlorate (0.1 M TBAP) as the supporting electrolyte, a hanging drop mercury electrode (HDME) as the working electrode, Ag/AgCl (3M KCl) as the reference electrode, and a graphite rod as the counter electrode. All measurements were performed after bubbling with nitrogen (N2) for 10 min.
Using Nicholson’s procedure, the Ipa/Ipc values (RNO2/RNO2^•−) were measured from each cyclic voltammogram with a scan rate between 0.1 and 2.5 V/s.

Data set [4] concerns RAW 264.7 cells. The experiment in a line: Plasma membrane permeability (SYTOX Green) of RAW 264.7 cells. The data set is classed as cell-based, murine.

Each structure is given as a SMILES string.

As a reminder, the IC50 is the concentration at which inhibition is half-maximal. Low values mean inhibition by little substance, high ones a need for much substance. `Cn1c2ccc([N+](=O)[O-])cc2c(=O)n1Cc1ccccc1` [Compound 1] came in with an IC50 in the data set with Dm28c trypomastigotes greater than 100 µM. In the data set on RAW 264.7 cells [1], this molecule registered an IC50 of 37.8 ± 1.2 µM. Besides, the “trypanocidal activity against CL-B5 epimastigotes” value (shortened to “trypanocidal activity”) in the data set on CL-B5 epimastigotes is reported as “effective against CL-B5 epimastigotes”. For the same molecule, in data set [2], the “SI Epimastigote” value amounted to 3.7 and the IC50 is 10.1 ± 0.6 µM. Further, in data set [3], the “−EpaIII” value was 1.02 V, the “−EpcIII” value was 1.12 V, the Ipa/Ipc is given as 0.94 and the “−E1/2” value is reported as 1.07 V.

`CCCn1c2ccc([N+](=O)[O-])cc2c(=O)n1Cc1ccccc1` [Compound 2a]: the “trypanocidal activity” value with CL-B5 epimastigotes is on record as “effective against CL-B5 epimastigotes”.

As for `CC(C)n1c2ccc([N+](=O)[O-])cc2c(=O)n1Cc1ccccc1` [Compound 2b], the “trypanocidal activity” value in the data set with CL-B5 epimastigotes is listed as “effective against CL-B5 epimastigotes”.

In general, melting point refers to the temperature, or range, at which the solid turns liquid. The molecule `Cn1c2ccc([N+](=O)[O-])cc2c(=O)n1Cc1ccc(Cl)cc1` [Compound 11, 2-(4-Chlorobenzyl)-1-methyl-5-nitro-1,2-dihydro-3H-indazol-3-one] returned a melting point of 128 to 130 °C. Moreover, the “SI Trypomastigote” value in the data set with Dm28c trypomastigotes (Selectivity Index IC50 macrophages RAW 264.7/IC50 trypomastigotes Dm28c) was 1.0. Besides, the IC50 in the data set with Dm28c trypomastigotes came out at 67.8 ± 1.7 µM. Besides, in the data set on RAW 264.7 cells [1], the concentration for half-maximal inhibition (IC50) turned out to be 68.8 ± 1.2 µM. Moreover, in the data set on RAW 264.7 cells [4], the “effect on plasma membrane permeability (SYTOX Green incorporation)” value is reported as “significantly affect permeability”. Further, in data set [2], the “SI Epimastigote” value turned out to be 1.0 and the IC50 was 70.1 ± 2.1 µM. Moreover, in data set [3], the “−EpaIII” value is recorded as 0.99 V, the “−EpcIII” value is 1.21 V, the Ipa/Ipc is recorded as 0.89 and the “−E1/2” value stood at 1.10 V.

The values above are taken from PMC11508334, “In Vitro Evaluation of New 5-Nitroindazolin-3-one Derivatives as Promising Agents against Trypanosoma cruzi” (International Journal of Molecular Sciences, 2024).
